These molecules were tested on TEAD-dependent transcription (12XGTIIC TEAD response element luciferase reporter) in MSTO-211H cells (assay: TEAD-dependent transcription cell-based luciferase reporter assay in MSTO-211H+12XGTIIC cells). Details: Homo sapiens; MSTO-211H+12XGTIIC reporter cells, 24 hours compound incubation, luminescence normalized to cell viability signal, geometric mean; read-out: MSTO-211H GMean IC50 (uM) Cell Assay Reporter Cell Variant: TEAD.
Excerpt: Determine Inhibitor Activity Against TEAD-Dependent Transcription in a Cell-Based Reporter Assay
The human mesothelioma cell line MSTO-211H was stably transfected with a pGL4.21 plasmid containing a synthetic promoter with 12 copies of the GTIIC TEAD response element that drives the expression of a luciferase reporter gene^1 using Lipofectamine transfection reagent (Thermo Fisher). Transfected cells were selected using puromycin and single cell clones expressing this construct (referred to as MSTO-211H+12XGTIIC) were generated by limiting dilution. MSTO-211H cells was characterized by genetic alterations in key components of the Hippo pathway^2, resulting in up-regulation of YAP/TEAD-mediated transcription. […] To evaluate TEAD inhibitors, the MSTO-211H+12XGTIIC cell line was seeded in a 96-well plate in 50 μL of culture media at 1×10^4 cells per well and incubated at 37° C. overnight. Serial dilutions of compounds (in total volume of 50 μL of culture media) were added to the cells and incubated at 37° C. for 24 hours. Each plate included cells treated with DMSO as high controls and cells treated with 20 μM of the reference compound K-975 (a known TEAD inhibitor^3) as low controls. Cell viability was assayed by the addition of 25 μL of CellTiter-Fluor reagent (Promega) followed by a 30-minute incubation at 37° C. and quantification of the fluorescence signal (Ex400/Em505). Subsequently, luciferase expression was assayed by the addition of 25 μL of ONE-Glo reagent (Promega) followed by a 10-minute incubation at room temperature and quantification of the luminescence signal. The luminescence signal was normalized to the fluorescence signal to correct for any loss in cell viability over the 24-hour compound incubation period. The percentage of inhibition of normalized luminescence signal, indicative of compound-mediated inhibition of TEAD-dependent transcription, at individual compound concentrations relative to high and low controls was calculated. The data were analyzed by using nonlinear regression to generate IC50 values for individual compounds.

O=C(Nc1ccccn1)N1CCC(C(=O)N2CCc3c(cccc3Nc3ccc(C(F)(F)F)nc3)C2)C1 (stereo not shown) [Compound O-0097, N-(pyridin-2-yl)-3-(5-((6-(trifluoromethyl)pyridin-3-yl)amino)-1,2,3,4-tetrahydroisoquinoline-2-carbonyl)pyrrolidine-1-carboxamide] and O=C(NCCC(=O)N1CCc2c(cccc2Nc2ccc(C(F)(F)F)nc2)C1)Nc1ccccn1 [Compound O-0184, 1-(3-oxo-3-(5-((6-(trifluoromethyl)pyridin-3-yl)amino)-3,4-dihydroisoquinolin-2(1H)-yl)propyl)-3-(pyridin-2-yl)urea] fall in the same range of IC50: 0.001 to 10 µM for the first, 0.001 to 10 µM for the second.

N=C(N)N1CCC(C(=O)N2CCc3c(cccc3Nc3ccc(C(F)(F)F)cn3)C2)C1 (stereo not shown) [Compound O-0203, 3-(5-((5-(trifluoromethyl)pyridin-2-yl)amino)-1,2,3,4-tetrahydroisoquinoline-2-carbonyl)pyrrolidine-1-carboximidamide] and O=C(NC1CC1)N1CCC(C(=O)N2CCc3c(cccc3Nc3ccc(C(F)(F)F)cn3)C2)C1 (stereo not shown) [Compound O-0092, N-cyclopropyl-3-(5-((5-(trifluoromethyl)pyridin-2-yl)amino)-1,2,3,4-tetrahydroisoquinoline-2-carbonyl)pyrrolidine-1-carboxamide] fall in the same range of IC50: 0.001 to 10 µM for the first, 0.001 to 10 µM for the second.

O=C(NCCC(=O)N1CCc2c(cccc2Nc2ccc(C(F)(F)F)cn2)C1)Nc1ccccn1 [Compound O-0186, 1-(3-oxo-3-(5-((5-(trifluoromethyl)pyridin-2-yl)amino)-3,4-dihydroisoquinolin-2(1H)-yl)propyl)-3-(pyridin-2-yl)urea] and O=C(CCS(=O)(=O)C(F)(F)F)N1CCc2c(cccc2Nc2ccc(C(F)(F)F)cn2)C1 [Compound O-0021, 1-(5-((5-(trifluoromethyl)pyridin-2-yl)amino)-3,4-dihydroisoquinolin-2(1H)-yl)-3-((trifluoromethyl)sulfonyl)propan-1-one] fall in the same range of IC50: 0.001 to 10 µM for the first, 0.001 to 10 µM for the second.

NC(=O)NCCC(=O)N1CCc2c(cccc2Nc2ccc(C(F)(F)F)c(F)c2)C1 [Compound O-0190, 1-(3-(5-((3-fluoro-4-(trifluoromethyl)phenyl)amino)-3,4-dihydroisoquinolin-2(1H)-yl)-3-oxopropyl)urea] and O=C1NC(=O)C(CC(=O)N2CCc3c(cccc3Nc3ccc(C(F)(F)F)c(F)c3)C2)N1 (stereo not shown) [Compound O-0197, 5-(2-(5-((3-fluoro-4-(trifluoromethyl)phenyl)amino)-3,4-dihydroisoquinolin-2(1H)-yl)-2-oxoethyl)imidazolidine-2,4-dione] fall in the same range of IC50: 0.001 to 10 µM for the first, 0.001 to 10 µM for the second.

CS(=O)(=O)c1nccc(C(=O)N2CCc3c(cccc3Nc3ccc(C(F)(F)F)cc3)C2)n1 [Compound O-0040, (2-(methylsulfonyl)pyrimidin-4-yl)(5-((4-(trifluoromethyl)phenyl)amino)-3,4-dihydroisoquinolin-2(1H)-yl)methanone] and CS(=O)(=O)c1nc(C(=O)N2CCc3c(cccc3Nc3ccc(C(F)(F)F)cc3)C2)c[nH]1 [Compound O-0045, (2-(methylsulfonyl)-1H-imidazol-4-yl)(5-((4-(trifluoromethyl)phenyl)amino)-3,4-dihydroisoquinolin-2(1H)-yl)methanone] fall in the same range of IC50: 0.001 to 10 µM for the first, 0.001 to 10 µM for the second.

O=C(Cc1cncs1)N1CCc2c(cccc2Nc2ccc(C(F)(F)F)cc2)C1 [Compound O-0003, 2-(thiazol-5-yl)-1-(5-((4-(trifluoromethyl)phenyl)amino)-3,4-dihydroisoquinolin-2(1H)-yl)ethan-1-one] and Cn1cncc1CC(=O)N1CCc2c(cccc2Nc2ccc(C(F)(F)F)cc2)C1 [Compound O-0002, 2-(1-methyl-1H-imidazol-5-yl)-1-(5-((4-(trifluoromethyl)phenyl)amino)-3,4-dihydroisoquinolin-2(1H)-yl)ethan-1-one] fall in the same range of IC50: 0.001 to 10 µM for the first, 0.001 to 10 µM for the second.

Nc1cccc(C(=O)N2CCc3c(cccc3Nc3ccc(C(F)(F)F)cc3)C2)n1 [Compound O-0029, (6-aminopyridin-2-yl)(5-((4-(trifluoromethyl)phenyl)amino)-3,4-dihydroisoquinolin-2(1H)-yl)methanone] and Nc1cccc(C(=O)N2CCc3c(cccc3Nc3ccc(C(F)(F)F)cc3)C2)c1 [Compound O-0028, (3-aminophenyl)(5-((4-(trifluoromethyl)phenyl)amino)-3,4-dihydroisoquinolin-2(1H)-yl)methanone] fall in the same range of IC50: 10 to 100 µM for the first, 10 to 100 µM for the second.

CN(c1ccc(C(F)(F)F)cc1)c1cccc2c1CCN(C(=O)Cc1cn[nH]c1)C2 [Compound O-0011, 1-(5-(methyl(4-(trifluoromethyl)phenyl)amino)-3,4-dihydroisoquinolin-2(1H)-yl)-2-(1H-pyrazol-4-yl)ethan-1-one] and CN(c1ccc(C(F)(F)F)cc1)c1cccc2c1CCN(C(=O)c1cccc(N)n1)C2 [Compound O-0014, (6-aminopyridin-2-yl)(5-(methyl(4-(trifluoromethyl)phenyl)amino)-3,4-dihydroisoquinolin-2(1H)-yl)methanone] fall in the same range of IC50: 0.001 to 10 µM for the first, 0.001 to 10 µM for the second.

CN(c1ccc(C(F)(F)F)nc1)c1cccc2c1CCN(C(=O)CCS(=O)(=O)C(F)(F)F)C2 [Compound O-0023, 1-(5-(methyl(6-(trifluoromethyl)pyridin-3-yl)amino)-3,4-dihydroisoquinolin-2(1H)-yl)-3-((trifluoromethyl)sulfonyl)propan-1-one] and CS(=O)(=O)CCC(=O)N1CCc2c(cccc2Nc2ccc(C(F)(F)F)cc2)C1 [Compound O-0001, 3-(methylsulfonyl)-1-(5-((4-(trifluoromethyl)phenyl)amino)-3,4-dihydroisoquinolin-2(1H)-yl)propan-1-one] fall in the same range of IC50: 0.001 to 10 µM for the first, 0.001 to 10 µM for the second.

Nc1nc(C(=O)N2CCc3c(cccc3Nc3ccc(C(F)(F)F)cc3)C2)cs1 [Compound O-0006, (2-aminothiazol-4-yl)(5-((4-(trifluoromethyl)phenyl)amino)-3,4-dihydroisoquinolin-2(1H)-yl)methanone] and C=CC(=O)Nc1nccc(C(=O)N2CCc3c(cccc3Nc3ccc(C(F)(F)F)cc3)C2)n1 [Compound O-0039, N-(4-(5-((4-(trifluoromethyl)phenyl)amino)-1,2,3,4-tetrahydroisoquinoline-2-carbonyl)pyrimidin-2-yl)acrylamide] fall in the same range of IC50: 0.001 to 10 µM for the first, 0.001 to 10 µM for the second.

O=C(NCCC(=O)N1CCc2c(cccc2Nc2ccc(C(F)(F)F)cc2F)C1)NC1CC1 [Compound O-0193, 1-cyclopropyl-3-(3-(5-((2-fluoro-4-(trifluoromethyl)phenyl)amino)-3,4-dihydroisoquinolin-2(1H)-yl)-3-oxopropyl)urea] and O=C(NC1CC1)N1CCC(C(=O)N2CCc3c(cccc3Nc3ccc(C(F)(F)F)cc3F)C2)C1 (stereo not shown) [Compound O-0094, N-cyclopropyl-3-(5-((2-fluoro-4-(trifluoromethyl)phenyl)amino)-1,2,3,4-tetrahydroisoquinoline-2-carbonyl)pyrrolidine-1-carboxamide] fall in the same range of IC50: 0.001 to 10 µM for the first, 0.001 to 10 µM for the second.

O=C1NC(=O)C(CC(=O)N2CCc3c(cccc3Nc3ccc(C(F)(F)F)cc3)C2)N1 (stereo not shown) [Compound O-0055, 5-(2-oxo-2-(5-((4-(trifluoromethyl)phenyl)amino)-3,4-dihydroisoquinolin-2(1H)-yl)ethyl)imidazolidine-2,4-dione] and CS(=O)(=O)c1cccc(C(=O)N2CCc3c(cccc3Nc3ccc(C(F)(F)F)cc3)C2)c1 [Compound O-0202, (3-(methylsulfonyl)phenyl)(5-((4-(trifluoromethyl)phenyl)amino)-3,4-dihydroisoquinolin-2(1H)-yl)methanone] fall in the same range of IC50: 0.001 to 10 µM for the first, 0.001 to 10 µM for the second.

O=C(C1CS(=O)(=O)C1)N1CCc2cc(Nc3ccc(C(F)(F)F)cc3)ccc2C1 [Compound O-0207, (1,1-dioxidothietan-3-yl)(6-((4-(trifluoromethyl)phenyl)amino)-3,4-dihydroisoquinolin-2(1H)-yl)methanone] and O=C(C1CCS(=O)(=O)CC1)N1CCc2cc(Nc3ccc(C(F)(F)F)cc3)ccc2C1 [Compound O-0208, (1,1-dioxidotetrahydro-2H-thiopyran-4-yl)(6-((4-(trifluoromethyl)phenyl)amino)-3,4-dihydroisoquinolin-2(1H)-yl)methanone] fall in the same range of IC50: 0.001 to 10 µM for the first, 0.001 to 10 µM for the second.

C=CC(=O)Nc1ccc(C(=O)N2CCc3c(cccc3N(C)c3ccc(C(F)(F)F)cc3)C2)cc1 [Compound O-0019, N-(4-(5-(methyl(4-(trifluoromethyl)phenyl)amino)-1,2,3,4-tetrahydroisoquinoline-2-carbonyl)phenyl)acrylamide] and CN(c1ccc(C(F)(F)F)cc1)c1cccc2c1CCN(C(=O)c1ccc(N)cc1)C2 [Compound O-0015, (4-aminophenyl)(5-(methyl(4-(trifluoromethyl)phenyl)amino)-3,4-dihydroisoquinolin-2(1H)-yl)methanone] fall in the same range of IC50: 0.001 to 10 µM for the first, 0.001 to 10 µM for the second.

From patent US20250368614A1, “COMPOUNDS AND METHODS FOR YAP/TEAD MODULATION AND INDICATIONS THEREFOR” (OPNA BIO SA, priority 2023, published 2025)
